Data as given in patent publication US20210275575A1, “COMPOSITION FOR IMPROVING RENAL FUNCTION IN RENAL DISEASES CONTAINING MOLECULAR HYDROGEN” (MiZ Company Limited, priority 2020, published 2021).
Like-named read-outs stand apart in the source and are kept apart here.

Key:
[1] = test system: patient with renal failure
Method: A person developed renal failure from diabetes and has been on dialysis since 2006.
Therefore, they started hydrogen gas inhalation in September 2019. Specifically, they did inhalations 3 to 4 hours per day using a hydrogen generator (model used: Jobs-a manufactured by MiZ Company Limited (hydrogen concentration: about 5%, other gas: air), amount of hydrogen gas generated: 200 ml/min).

[2] = test system: human patient with chronic nephritis
[3] = approximately three years after first visit (about 2 years of inhalation)
[4] = approximately two and a half years after first visit
[5] = approximately two and a half years after first visit, 6 to 7.5% hydrogen inhaled 2 to 3 hours per day

Q: With `[HH]` [molecular hydrogen] as the molecule, how does the “feelings of heaviness after dialysis” value ([1]; 1 month after starting hydrogen inhalation) read?
A: their body felt lighter

Q: What about the edema after dialysis ([1]; 1 month after starting hydrogen inhalation, about 5% hydrogen in air, 3 to 4 hours per day) of the same molecule?
A: the edema decreased

Q: And the walking ability ([1]; 10 days after starting hydrogen inhalation, about 5% hydrogen in air, 3 to 4 hours per day)?
A: became able to walk

Q: What about the “urinary protein (protein amount per day)” value ([2]; about 2 years of inhalation, when the excreted urine volume is 1.5 L per day, normal levels: less than 0.2 g/day) of the same molecule?
A: about 0.1 g/day

Q: What about the urinary protein determination ([2]; approximately three years after first visit (about 2 years after the start of molecular hydrogen inhalation)) of the same molecule?
A: 6.6 mg/dL

Q: And the HbA1c [2, 3]?
A: 6.5%

Q: And the blood sugar level [2, 3]?
A: 139 mg/dL

Q: And the glyco-albumin [2, 3]?
A: 17.3%

Q: And the “need for dialysis (doctor's judgement)” value [2, 3]?
A: dialysis was not required

Q: And the “renal function and diabetic symptoms (assessment in words)” value [2, 3]?
A: improvement in renal function and diabetic symptoms was observed

Q: And the serum creatinine [2, 3]?
A: 0.86 mg/dL

Q: And the “urea nitrogen (BUN)” value [2, 3]?
A: 21.5 mg/dL

Q: What about the urinary creatinine [2, 3] of the same molecule?
A: 27.3 mg/dL

Q: And the eGFR ([2]; approximately three years after first visit (about 2 years of inhalation), formula of b46 (ml/min/1.73 m^2))?
A: 45.9

Q: What about the “urinary protein/urinary creatinine ratio” value ([2]; approximately three years after first visit (about 2 years of inhalation), normal levels: less than 0.3 g/gCr) of the same molecule?
A: 0.24 g/gCr

Q: And the HbA1c [2, 4]?
A: 8.0%

Q: And the blood sugar level [2, 4]?
A: 181 mg/dL

Q: What about the glyco-albumin [2, 4] of the same molecule?
A: 24.7%

Q: And the “renal function (assessment in words)” value [2, 4]?
A: tendency for improvement

Q: And the serum creatinine [2, 4]?
A: 0.91 mg/dL

Q: And the “symptoms of diabetes (assessment in words)” value [2, 4]?
A: seem to be getting worse

Q: And the “urea nitrogen (BUN)” value [2, 4]?
A: 22.1 mg/dL

Q: And the urinary creatinine [2, 5]?
A: 24.1 mg/dL

Q: What about the urinary protein determination [2, 5] of the same molecule?
A: 25.3 mg/dL

Q: And the “urinary protein/urinary creatinine ratio” value [2, 5]?
A: 1.05 g/gCr

Q: What about the eGFR ([2]; approximately two and a half years after first visit, eGFR estimated by the formula of b46 (ml/min/1.73 m^2)) of the same molecule?
A: 52.0

Q: What about the urinary protein ([2]; approximately two and a half years after first visit, inhalation of 6 to 7.5% hydrogen about 2 to 3 hours per day, started about one year after first visit, concomitant medicaments) of the same molecule?
A: ± (± is A2)
